Laboratory results: ChEMBL document CHEMBL1201862, “PubChem BioAssay data set” (2004)
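Five concentrations, 48 hours, 96-well plates. Abbreviation: GI50, concentration required for 50% inhibition of growth.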 Active and inactive are the calls of the source. Cut-off read from the data, not from the text of the source: active = GI50 up to about 1.1 µM and inactive = higher.

How the values were obtained:
Assay in all cases: NCI anticancer screen, dose series, 48 h
BT-549 = system: BT-549
CCRF-CEM = system: CCRF-CEM
COLO 205 = system: COLO 205
DLD-1 = system: DLD-1
HCC 2998 = system: HCC 2998
HCT-116 = system: HCT-116
HOP-62 = system: HOP-62
HT-29 = system: HT-29
K562 = system: K562
MDA-MB-231 = system: MDA-MB-231
MDA-MB-435 = system: MDA-MB-435
MDA-N = system: MDA-N
MOLT-4 = system: MOLT-4
Malme-3M = system: Malme-3M
SF-268 = system: SF-268
SN12C = system: SN12C
T47D = system: T47D
TK-10 = system: TK-10
U-251 = system: U-251
UACC-62 = system: UACC-62

Q: What does the source list for `CN(O)C(=S)c1ccccc1`?
A: GI50 (BT-549): > 100 µM (inactive); GI50 (CCRF-CEM): 0.105 µM (active); GI50 (COLO 205): 0.379 µM (active); GI50 (DLD-1): 0.619 µM (active); GI50 (HCC 2998): 6.34 µM (inactive); GI50 (HCT-116): 1.49 µM (inactive); GI50 (HOP-62): 11.4 µM (inactive); GI50 (HT-29): 0.312 µM (active); GI50 (K562): 0.347 µM (active); GI50 (MDA-MB-231): 9.33 µM (inactive); GI50 (MDA-MB-435): 3.38 µM (inactive); GI50 (MDA-N): 6.95 µM (inactive); GI50 (MOLT-4): 0.325 µM (active); GI50 (Malme-3M): 7.82 µM (inactive); GI50 (SF-268): 6.43 µM (inactive); GI50 (SN12C): 5.18 µM (inactive); GI50 (T47D): 16.4 µM (inactive); GI50 (TK-10): > 78.2 µM (inactive); GI50 (U-251): 3.18 µM (inactive); GI50 (UACC-62): 1.85 µM (inactive)

Q: Which results are given for `O=CN/C=C/c1ccccc1`?
A: GI50 (CCRF-CEM): > 100 µM (inactive); GI50 (COLO 205): > 63.2 µM (inactive); GI50 (DLD-1): > 100 µM (inactive); GI50 (HCC 2998): > 100 µM (inactive); GI50 (HCT-116): > 100 µM (inactive); GI50 (HOP-62): > 100 µM (inactive); GI50 (HT-29): > 100 µM (inactive); GI50 (K562): > 31.6 µM (inactive); GI50 (MOLT-4): > 100 µM (inactive); GI50 (Malme-3M): > 100 µM (inactive); GI50 (SF-268): > 100 µM (inactive); GI50 (SN12C): > 100 µM (inactive); GI50 (TK-10): > 100 µM (inactive); GI50 (U-251): > 100 µM (inactive); GI50 (UACC-62): > 100 µM (inactive)

Q: For `COc1cccc2c1C1(O)C2CCCC12OCCCO2` (stereo not given), which GI50 (CCRF-CEM) is on record?
A: > 100 µM (inactive)

Q: What about the GI50 (COLO 205) of the same compound?
A: > 100 µM (inactive)

Q: What about the GI50 (DLD-1) of the same compound?
A: > 100 µM (inactive)

Q: What about the GI50 (HCC 2998) of the same compound?
A: > 100 µM (inactive)

Q: And the GI50 (HCT-116)?
A: > 100 µM (inactive)

Q: What about the GI50 (HOP-62) of the same compound?
A: > 100 µM (inactive)

Q: What about the GI50 (HT-29) of the same compound?
A: > 100 µM (inactive)

Q: And the GI50 (K562)?
A: > 100 µM (inactive)

Q: And the GI50 (MOLT-4)?
A: > 100 µM (inactive)

Q: What about the GI50 (Malme-3M) of the same compound?
A: > 100 µM (inactive)

Q: And the GI50 (SF-268)?
A: > 100 µM (inactive)

Q: What about the GI50 (SN12C) of the same compound?
A: > 100 µM (inactive)

Q: And the GI50 (TK-10)?
A: > 100 µM (inactive)

Q: What about the GI50 (U-251) of the same compound?
A: > 100 µM (inactive)

Q: What about the GI50 (UACC-62) of the same compound?
A: > 100 µM (inactive)

Q: Which GI50 (CCRF-CEM) does the source give for `Cc1nc(-n2nc(-c3ccccc3)cc2-c2ccccc2)sc1C(/C=C/c1ccc([N+](=O)[O-])cc1)=N/NC(N)=S` here?
A: 22.2 µM (inactive)

Q: What about the GI50 (COLO 205) of the same compound?
A: 33.2 µM (inactive)

Q: What about the GI50 (DLD-1) of the same compound?
A: 43 µM (inactive)

Q: And the GI50 (HCC 2998)?
A: 23.1 µM (inactive)

Q: And the GI50 (HCT-116)?
A: 15.8 µM (inactive)

Q: What about the GI50 (HOP-62) of the same compound?
A: 14 µM (inactive)

Q: And the GI50 (HT-29)?
A: 23.7 µM (inactive)

Q: What about the GI50 (K562) of the same compound?
A: 21.6 µM (inactive)

Q: What about the GI50 (MOLT-4) of the same compound?
A: 13.6 µM (inactive)

Q: And the GI50 (Malme-3M)?
A: > 100 µM (inactive)

Q: And the GI50 (SF-268)?
A: 31.4 µM (inactive)

Q: And the GI50 (SN12C)?
A: > 100 µM (inactive)

Q: What about the GI50 (TK-10) of the same compound?
A: > 100 µM (inactive)

Q: And the GI50 (U-251)?
A: 47.2 µM (inactive)

Q: What about the GI50 (UACC-62) of the same compound?
A: 54.8 µM (inactive)

Q: What does the source list for `COC(=O)C1Cc2c(n(C)c3ccccc23)C(CCC(=O)O)N1Cc1ccccc1` (stereo not given)?
A: GI50 (CCRF-CEM): 25.4 µM (inactive); GI50 (COLO 205): 27 µM (inactive); GI50 (DLD-1): > 100 µM (inactive); GI50 (HCC 2998): > 100 µM (inactive); GI50 (HCT-116): 21.2 µM (inactive); GI50 (HOP-62): > 100 µM (inactive); GI50 (HT-29): 36.1 µM (inactive); GI50 (K562): 37 µM (inactive); GI50 (MOLT-4): 27.5 µM (inactive); GI50 (Malme-3M): > 100 µM (inactive); GI50 (SF-268): 26.4 µM (inactive); GI50 (SN12C): 38.5 µM (inactive); GI50 (TK-10): 55.8 µM (inactive); GI50 (U-251): 37.7 µM (inactive); GI50 (UACC-62): 26.6 µM (inactive)

Q: For `O=C(O/N=C1/CCC/C1=C\c1ccccc1)c1ccc(Cl)cc1`, which GI50 (CCRF-CEM) is on record?
A: > 100 µM (inactive)

Q: What about the GI50 (COLO 205) of the same compound?
A: > 100 µM (inactive)

Q: And the GI50 (DLD-1)?
A: 23.9 µM (inactive)

Q: And the GI50 (HCC 2998)?
A: > 100 µM (inactive)

Q: And the GI50 (HCT-116)?
A: > 100 µM (inactive)

Q: And the GI50 (HOP-62)?
A: > 54.3 µM (inactive)

Q: What about the GI50 (HT-29) of the same compound?
A: > 100 µM (inactive)

Q: And the GI50 (K562)?
A: > 94.2 µM (inactive)

Q: And the GI50 (MOLT-4)?
A: > 100 µM (inactive)

Q: What about the GI50 (Malme-3M) of the same compound?
A: > 100 µM (inactive)

Q: What about the GI50 (SF-268) of the same compound?
A: > 77.4 µM (inactive)

Q: And the GI50 (SN12C)?
A: > 58.6 µM (inactive)

Q: What about the GI50 (TK-10) of the same compound?
A: 38.9 µM (inactive)

Q: What about the GI50 (U-251) of the same compound?
A: 46.6 µM (inactive)

Q: And the GI50 (UACC-62)?
A: > 80.4 µM (inactive)
